Source: paper PMC4706877, “Antibacterial and Cytotoxic Activity of Compounds Isolated from Flourensia oolepis” (Evidence-based Complementary and Alternative Medicine : eCAM, 2015)
pIC50: −log10 of the molar value. In brackets after ≈: the same amount, converted by molar mass. Where a name gives a salt, the structure may show the parent alone. Read-outs that look alike come from different tables or passages of the source.

What was measured:
[1] = tested on: Lucena 1 cells (MDR, P-glycoprotein overexpressing); test: cells; assay type: cell-based, human; conditions: for pIC50: Homo sapiens, Lucena 1, 72 h, Lucena 1, MTT, 72 h, read-out: IC50 values and 95% confidence limits (lower, upper)
Protocol: (§1) The HEK293T non-tumor derived cell line and human isolated mononuclear cells (PBMC) were also tested. […] Cells were cultured at 37°C in a 5% CO2 humidified environment.
(§2) The latter concentration was then used for maintenance of the cells. Lucena 1 were continuously cultured in the presence of 60 nM DOX. Both cell lines were grown in drug-free medium 3-4 days before the experiments. Overexpression of P-glycoprotein (P-gp) in both MDR variants was verified by flow cytometry using FITC-labeled mouse anti-human P-gp (BD Pharmingen, USA). Cells were subcultured twice a week from frozen stocks and used before the 20th passage. All experiments were performed with cells in the logarithmic growth phase with cell viabilities over 90%, determined by trypan blue staining.
(§3) To investigate the cytotoxic potential of the isolated compounds, the MTT colorimetric assay was performed. […] The compounds were evaluated at a final maximum concentration of 100 μM. After 72 hours, 20 μL of 5 mg/mL solution of MTT in sterile PBS was added to each well and further incubated for 4 h. Then, the supernatants were removed and replaced with 100 μL DMSO to solubilize the resulting purple formazan crystals produced from metabolically viable cells. Absorbance was measured with an iMark micro-plate reader (Bio-Rad, USA) at 595 nm. Two wells were used for each concentration of the products assayed and three independent experiments were performed. […] The percentage of cytotoxic activity of the assayed compounds was determined by the following formula: cytotoxicity (%) = [1 − (optical density of treated cells − optical density DMSO)/(optical density of ethanol control cells − optical density DMSO)] × 100.
(§4) Data were analyzed by one-way analysis of variance (ANOVA) and means were compared using Bonferroni's comparison test, with p ≤ 0.05 considered as statistically significant.

[2] = tested on: CEM/ADR5000 cells (MDR, P-glycoprotein overexpressing); test: cells; assay type: cell-based, human; conditions: for pIC50: Homo sapiens, ADR5000, 72 h, CEM/ADR5000, MTT, 72 h, read-out: IC50 values and 95% confidence limits (lower, upper)
Protocol: as §1, §2, §3, §4

[3] = tested on: Pseudomonas aeruginosa (ATCC 27853); test: Agar dilution MIC / MBC; assay type: cell-based; conditions: ATCC27853, P. aeruginosa; for MIC: agar dilution, 24 h; for MBC: value in parentheses
Protocol: (§5) This isolate was identified by conventional biochemical assays and by the commercial system API20E (bioMérieux SA, Mercy L'Etoile, France). Antimicrobial resistances were determined by disk diffusion susceptibility testing (Kirby-Bauer Method) according to CLSI [15]. Bacterial suspensions were prepared on sterile saline from each organism grown overnight. Turbidity was spectrophotometrically adjusted to the McFarland 0.5 standard. Dilutions were carried out with sterile saline to give an adjusted concentration of 1.5 × 10^7 colony-forming units/mL.
(§6) Three independent experiments were carried out. […] For reading, visual observations were carried out.

[4] = tested on: Staphylococcus aureus subsp. aureus (ATCC 6538); test: Agar dilution MIC / MBC; assay type: cell-based; conditions: Staphylococcus aureus, ATCC6538, S. aureus; for MIC: agar dilution, 24 h; for MBC: value in parentheses, read-out: MBC
Protocol: as §5, §6

[5] = tested on: Escherichia coli (ATCC 25922); test: Agar dilution MIC / MBC; assay type: cell-based; conditions: ATCC25922, E. coli; for MIC: agar dilution, 24 h; for MBC: value in parentheses
Protocol: as §5, §6

[6] = tested on: Enterococcus faecalis (ATCC 29212); test: Agar dilution MIC / MBC; assay type: cell-based; conditions: ATCC29212, E. faecalis; for MIC: agar dilution, 24 h; for MBC: value in parentheses
Protocol: as §5, §6

[7] = tested on: tetracycline, erythromycin, and polymyxin-resistant Proteus mirabilis (Pr2921); test: Agar dilution MIC / MBC; assay type: cell-based; conditions: P. mirabilis; for MIC: agar dilution, 24 h; for MBC: value in parentheses
Protocol: as §5, §6

[8] = tested on: K562 chronic myeloid leukemia cells; test: MTT cell proliferation assay; assay type: cell-based, human; conditions: Homo sapiens, K562, MTT, 72 h, read-out: IC50 values and 95% confidence limits (lower, upper)
Protocol: as §1, §3, §4

[9] = tested on: CCRF-CEM acute lymphoblastic leukemia cells; test: MTT cell proliferation assay; assay type: cell-based, human
Protocol: as §1, §3, §4

bacteria = test: Antibacterial test of fractions during bioguided isolation; conditions: at 2 mg/mL
Protocol: MICs were determined by the agar dilution test according to CLSI [15] with some modifications [7]. Briefly, the plate count agar medium (PCA, Oxoid Ltd, UK) was added in duplicate to the suitable amount of fraction or pure compound previously dissolved in ethanol. […] After solidification of the agar in 6-well plates (Greiner Bio-One, Germany), 2 μL of each bacterial suspension was placed on the agar surface. Three independent experiments were carried out. […] For reading, visual observations were carried out. Nitro blue tetrazolium (NBT, Sigma-Aldrich CO, USA) solution in saline phosphate buffer (PBS) was applied on one spot for confirmation. Plates containing only the culture medium, with or without the addition of the dissolution solvent, were used as controls. Positive controls with commercial gentamicin sulfate or erythromycin dissolved in sterile water or ethanol, respectively, were simultaneously carried out.
The bactericidal effect was further studied from each concentration of product showing growth inhibition. […] At the end of this period, the minimum bactericidal concentration (MBC) values, defined as the lowest concentration with absence of turbidity, were recorded.

[10] = Homo sapiens; CCRF-CEM; MTT, 72 h; read-out: IC50 values and 95% confidence limits (lower, upper)

Row | SMILES | pIC50 [1] | pIC50 [2] | MIC [3] [µg/mL] | MBC [3] [µg/mL] | MIC [4] [µg/mL] | MBC [4] [µg/mL] | MIC [5] [µg/mL] | MBC [5] [µg/mL] | MIC [6] [µg/mL] | MBC [6] [µg/mL] | MIC [7] [µg/mL] | MBC [7] [µg/mL] | pIC50 [8] | pIC50 [9, 10] | bactericidal activity (bacteria) | resistant index (RI) = IC50 resistant cells/IC50 sensitive cells [1] | resistant index (RI) = IC50 resistant cells/IC50 sensitive cells ([2]; CEM/ADR5000 vs CCRF-CEM) | pIC50 ([8]; K562, 72 h) | pIC50 ([9]; Homo sapiens, CCRF-CEM, 72 h, CCRF-CEM; MTT, 72 h; read-out: IC50 values and 95% confidence limits (lower, upper))
1 | O=C(/C=C/c1ccc(O)cc1)c1ccc(O)cc1O [Compound 2, isoliquiritigenin] | < 4.00 | 4.28 | > 500 | > 500 | 250 (≈ 976 µM) | 500 (≈ 1950 µM) | > 500 | > 500 | 500 (≈ 1950 µM) | > 500 | > 500 | > 500 | < 4.00 | 4.24 |  |  |  |  | 
2 | CC[C@H]1OC(=O)[C@H](C)[C@@H](O[C@H]2C[C@@](C)(OC)[C@@H](O)[C@H](C)O2)[C@H](C)[C@@H](O[C@@H]2O[C@H](C)C[C@H](N(C)C)[C@H]2O)[C@](C)(O)C[C@@H](C)C(=O)[C@H](C)[C@@H](O)[C@]1(C)O [Erythromycin, erythromycin, reference compound] |  |  | 62 (≈ 84.5 µM) | 500 (≈ 681 µM) | 1 (≈ 1.36 µM) | 60 (≈ 81.8 µM) | 125 (≈ 170 µM) | > 500 | 1 (≈ 1.36 µM) | 30 (≈ 40.9 µM) | 500 (≈ 681 µM) | > 500 |  |  |  |  |  |  | 
3 | CNC(C)C1CCC(N)C(OC2C(N)CC(N)C(OC3OCC(C)(O)C(NC)C3O)C2O)O1 (stereo not drawn) [Gentamicin, Gentamicin sulfate, reference compound] |  |  | 4 | 4 | 8 | 10 | 4 | 8 | 8 | 10 | 10 | 10 |  |  |  |  |  |  | 
4 | O=C1C[C@@H](c2ccccc2)Oc2cc(O)cc(O)c21 [Compound 3, pinocembrin] | < 4.00 | 4.27 | > 500 | > 500 | 15 (≈ 58.5 µM) | 62 (≈ 242 µM) | 500 (≈ 1950 µM) | 500 (≈ 1950 µM) | 62 (≈ 242 µM) | 125 (≈ 488 µM) | > 500 | > 500 | < 4.00 | 4.23 | bactericidal effects |  |  |  | 
5 | COc1cccc2c1C(=O)c1c(O)c3c(c(O)c1C2=O)C[C@@](O)(C(=O)CO)C[C@@H]3O[C@H]1C[C@H](N)[C@H](O)[C@H](C)O1 [Doxorubicin, Doxorubicin hydrochloride, reference compound] | < 4.16 | < 4.16 |  |  |  |  |  |  |  |  |  |  |  |  |  | ≥ 16.8 | ≥ 518.8 | 5.39 | 6.88
6 | COc1cc(C2CC(=O)c3ccc(O)cc3O2)ccc1O (stereo not drawn) [Compound 5, 7,4′-dihydroxy-3′-methoxyflavanone] | < 4.00 | 4.52 | > 500 | > 500 | 250 (≈ 873 µM) | > 500 | > 500 | > 500 | 500 (≈ 1750 µM) | > 500 | > 500 | > 500 | < 4.00 | 4.61 |  |  |  |  | 
